Assay results published in patent US11613531B2, “Inhibitors of RHO associated coiled-coil containing protein kinase” (Kadmon Corporation, LLC, priority 2017, dated 2023).

Key:
[1] = tested on: phosphorylation of ROCK targets MLC and MYPT1 in A7R5 cells; test: Western blot of A7R5 cell lysates (ppMlc, MYPT1); format: cell-based, Rat; details: 110 nM, 90 min
Procedure: FIG. 1c. Western blot of A7R5 cell lysates to visualize ppMlc (T18/S19) levels following treatment with the compound of Example 192 (“Example 192”) for 90 min. A7R5 cells were treated with the compound and ppMlc (T18/S19) levels were visualized by western blotting.
A7R5 cells were treated with the compound of Example 192 for 90 min and ppMlc (T18/S19) levels were visualized by western blotting.

[2] = tested on: UUO-induced renal fibrosis in mice; test: Unilateral ureteral obstruction (UUO)-induced renal fibrosis model; format: in vivo; details: oral 3 mg/kg BID, 6 mg/kg BID and 10 mg/kg QD, Day 10, Masson's trichrome
Text: FIG. 11a. ROCK inhibitor is active in a mouse model of renal fibrosis. Representative images of kidney sections stained with Masson's trichrome to visualize collagen and fibrosis in mice treated with ROCK inhibitor in the ureteral obstruction (UUO) induced renal fibrosis mouse model.
FIG. 11b. Quantitation of the decrease in the interstitial fibrosis index in the histopathological analysis of the images from ROCK inhibitor and vehicle treated mice in the UUO induced renal fibrosis mouse model.
Unilateral Ureteral Obstruction (UUO)-Induced Renal Fibrosis Model in Mice
Male C57B/L6 mice were anesthetized with Isoflurane and placed in dorsal recumbency and the abdominal region was shaved and prepared for surgery with alternating scrub wipes of iodine or chlorhexidine scrub and 70% isopropyl alcohol. […] All animals were monitored closely for 3 days. […]
To assess the activity of ROCK inhibitors in modulation of additional organ fibrosis in an in vivo setting, ROCK inhibitor was tested in a UUO model of renal fibrosis. […] The animals were sacrificed on Day 10 following surgery and the extent of fibrosis was determined by histopathological analysis of fixed kidney sections stained with Masson's trichrome. […]
The improvement in the kidney fibrosis following UUO was quantitated based on the individual image scores by a pathologist blinded to the group assignments. […]

[3] = tested on: human ACTA2 gene promoter luciferase reporter in NIH3T3 cells; test: NIH3T3 Acta2-promoter driven-luciferase assay; format: cell-based; details: NIH3T3, 24 h, NIH3T3 cells, plus TGFβ1 for 24 hr; read-out: NIH3T3 Acta2-luc, IC50
Summary of the method: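 NIH3T3 cells stably carrying a human ACTA2 promoter (−1000-1 bp)-luciferase reporter, grown to confluence, treated 24 hr with compound plus TGFβ1 at 9-point serial dilution. Luciferase read after lysis; IC50 by nonlinear regression.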

[4] = tested on: ppMlc (T18/S19) levels in A7R5 cells; test: A7R5 in-cell ELISA (pMLC); format: cell-based, Rat; details: Rattus norvegicus, A7R5, A7R5 cells
Summary of the method: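 A7R5 rat aortic smooth muscle cells seeded 24 h, then treated 90 min with a 9-point 2-fold compound dilution series. Fixed cells probed for ppMlc (T18/S19) by colorimetric in-cell ELISA; cellular IC50 from nonlinear regression curve fit.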

[5] = target: Recombinant ROCK1 (amino acids 1-535) (Homo sapiens (Human), UniProt Q13464); test: Z′-Lyte kinase assay, ROCK1; format: biochemical; details: 9 points 2-fold serial dilution
Sequence of Recombinant ROCK1 (amino acids 1-535) (Q13464 1-535): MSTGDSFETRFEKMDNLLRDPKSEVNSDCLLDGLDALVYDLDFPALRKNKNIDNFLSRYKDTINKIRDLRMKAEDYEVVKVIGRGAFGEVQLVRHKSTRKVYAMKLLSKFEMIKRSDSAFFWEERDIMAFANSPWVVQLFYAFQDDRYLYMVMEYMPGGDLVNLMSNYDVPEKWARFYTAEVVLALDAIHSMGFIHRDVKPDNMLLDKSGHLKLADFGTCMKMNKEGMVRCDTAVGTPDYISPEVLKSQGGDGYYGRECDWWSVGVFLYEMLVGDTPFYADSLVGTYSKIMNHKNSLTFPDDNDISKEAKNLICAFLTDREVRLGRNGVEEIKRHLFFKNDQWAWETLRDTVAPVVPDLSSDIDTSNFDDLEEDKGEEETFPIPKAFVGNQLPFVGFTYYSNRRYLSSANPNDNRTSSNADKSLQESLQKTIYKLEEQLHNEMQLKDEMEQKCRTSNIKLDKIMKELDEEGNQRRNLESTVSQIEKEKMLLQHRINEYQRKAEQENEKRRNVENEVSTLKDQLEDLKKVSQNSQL
Summary of the method: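 Recombinant human ROCK1 (aa 1-535) or ROCK2 (aa 1-552) activity read by Z′-Lyte kinase assay. Percent inhibition at 1 μM compound was normalized to DMSO control; IC50 from 9-point 2-fold serial dilutions by nonlinear regression.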

SMILES: Clc1cnc(N2C3CCC2CNC3)nc1Nc1ccc2[nH]ncc2c1 [Example 192, N-(2-(3,8-diazabicyclo[3.2.1]octan-8-yl)-5-chloropyrimidin-4-yl)-1H-indazol-5-amine]
- phosphorylation of ROCK targets MLC and MYPT1 [1]: efficiently blocked
- amount of interstitial collagen in the obstructed kidney [2]: significantly lower
- IC50 [3]: 189 nM
- inhibition at 1 µM ([4]; 1 μM compound, read-out: pMLC % inh A7R5 @ [conc]): 53.5%
- IC50 ([4]; ppMlc (T18/S19)): 98 nM
- IC50 [5]: 5 nM
